Measurements taken from patent US20060104969A1, “Compositions and methods for enhancing structural and functional nervous system reorganization and recovery” (Massachusetts Institute of Technology, priority 2004, published 2006).

B1: plasmin (protein, UniProt P00747 20-580; P00747 581-810, looked up)
Plasmin heavy chain A: EPLDDYVNTQGASLFSVTKKQLGAGSIEECAAKCEEDEEFTCRAFQYHSKEQQCVIMAENRKSSIIIRMRDVVLFEKKVYLSECKTGNGKNYRGTMSKTKNGITCQKWSSTSPHRPRFSPATHPSEGLEENYCRNPDNDPQGPWCYTTDPEKRYDYCDILECEEECMHCSGENYDGKISKTMSGLECQAWDSQSPHAHGYIPSKFPNKNLKKNYCRNPDRELRPWCFTTDPNKRWELCDIPRCTTPPPSSGPTYQCLKGTGENYRGNVAVTVSGHTCQHWSAQTPHTHNRTPENFPCKNLDENYCRNPDGKRAPWCHTTNSQVRWEYCKIPSCDSSPVSTEQLAPTAPPELTPVVQDCYHGDGQSYRGTSSTTTTGKKCQSWSSMTPHRHQKTPENYPNAGLTMNYCRNPDADKGPWCFTTDPSVRWEYCNLKKCSGTEASVVAPPPVVLLPDVETPSEEDCMFGNGKGYRGKRATTVTGTPCQDWAAQEPHRHSIFTPETNPRAGLEKNYCRNPDGDVGGPWCYTTNPRKLYDYCDVPQCAAPSFDCGKPQVEPKKCPGR
Plasmin light chain B: VVGGCVAHPHSWPWQVSLRTRFGMHFCGGTLISPEWVLTAAHCLEKSPRPSSYKVILGAHQEVNLEPHVQEIEVSRLFLEPTRKDIALLKLSSPAVITDKVIPACLPSPNYVVADRTECFITGWGETQGTFGAGLLKEAQLPVIENKVCNRYEFLNGRVQSTELCAGHLAGGTDSCQGDSGGPLVCFEKDKYILQGVTSWGLGCARPNKPGVYVRVSRFVTWIEGVMRNN
modifications: Plasmin
notes: serine protease whose major substrate is fibrin (Sigma)

What was measured:
axon growth = details: cited from earlier work
[1] = test system: rats with middle cerebral artery occlusion (MCAO); assay: Forelimb inhibition behavioral test after middle cerebral artery occlusion (MCAO); format: in vivo; details: intraventricular infusion 2 or 10 μg/day for 7 days, started 2 days after MCAO
Experimental: Twenty rats were trained on a battery of behavioral tasks until they achieved an asymptotic level of competence. Rats then received occlusion of the middle cerebral artery (MCAO) according to standard procedures. […] At the time of MCAO surgery, 10 of the 20 rats were also implanted with an osmotic mini-pump (Alzet model 2001, 7 day pump with […] and 1.0 μL/hour infusion) for intraventricular infusion contralateral to the site of the MCAO. The mini-pumps were filled with human two-chain tissue plasminogen activator (tPA; American Diagnostica, Inc.) at two different concentrations: 5 animals received 2 μg/day and 5 animals received 10 μg/day. tPA treatment was initiated 2 days following MCAO and was maintained for 7 days. Control and tPA-treated rats were subsequently tested weekly for behavioral recovery.
Initial results regarding one of the behavioral tests, forelimb inhibition, are striking. Normal animals rarely use their forelimbs while swimming across a test basin, a phenomenon referred to as “inhibition”. After stroke, this inhibition is reduced, so that forelimb use increases. […] On other tests, there was less difference between tPA treated animals and controls though this and other data is still being analyzed.

[2] = test system: dendritic spines of layer V pyramidal neurons in visual cortex slices; assay: Spine motility in acute visual cortex slices before and after enzyme application (two-photon imaging); format: cell-based, mice; details: p28 non-deprived slices; 45 minute enzyme application; tPA 0.5 μg/mL without exogenous plasminogen, plasmin 0.2 U/mL; p<0.0001
Experimental: Two photon imaging. Mice were prepared for in vivo imaging and imaged as described previously (Majewska and Sur, 2003). Briefly, primary visual cortex was identified using stereotaxic coordinates and either a small craniotomy was drilled in this area, or the skull was thinned without making a craniotomy. Imaging was performed with a custo m-made two-photon microscope consisting of a Ti:S laser (Tsunami, Spectra-physics, Menlo Park, Calif.) pumped by a 10W solid state source (Millennia, Spectra-physics) coupled to a modified Fluoview confocal scanhead (Olympus, Melville, N.Y.). Superficial dendrites were initially identified with wide-field epi-fluorescence illumination, and were subsequently imaged using a 60×, 0.9 N.A. lens with digital zoom (5-10×). Volumetric z-stacks were typically collected with a 800×600 acquisition window with 0.5-1 μm z-steps every five minutes over two hours. […]
Z-stack images were exported to MATLAB (Mathworks, Natick, Mass.) and processed using custom algorithms. Spine motility was analyzed on two-dimensional projections in ImageJ (NIH, Bethesda, Md.), where motility was defined as the average change in spine length per unit time (Lendvai et al., 2000; Majewska and Sur, 2003). […]

[3] = test system: spinal cord injury epicenter tissue; assay: Histological analysis of the spinal cord injury epicenter (hematoxylin and eosin, solvent blue); format: in vivo, Sprague-Dawley rats
Excerpt: FIG. 9 presents micrographs showing the overall microscopic difference in injury epicenter pathology between rats receiving tPA or vehicle in the area of residual total tissue (hematoxylin and eosin stain).
FIG. 10 presents micrographs showing the overall difference between rats receiving tPA (left panel) or vehicle (right panel) in the typical cross-sectional area of residual total white matter (WM) at the injury epicenter (e.g. WM+hypomyelinated WM). […] In contrast, SB stain in the vehicle treated spinal cord was much weaker, indicating much lower quantity presence of myelin in the tissue.
Sections were stained with solvent blue [SB]/hematoxylin and eosin as described in Teng and Wrathall, 1997.
Three days post-operatively, a second operation was conducted at T8-T9 for a bolus micro-injection of 10 μg of tPA (human two-chain tissue plasminogen activator; American Diagnostica, Inc.) reconstituted from lyophilized powder to 10 μg/10 μL) into three of the six rats. Following the bolus injection, an osmotic minipump (Alzet Model 2002: 14 day pump) (Durect Corp., Cupertino, Calif.) loaded with tPA (200 μL total volume, delivering 0.5 μL/hour, 10 μg tPA/day) was implanted at the side of injury and delivered tPA for 10 consecutive days. […]

[4] = test system: rats with spinal cord injury (SCI); assay: Recovery of locomotor function (BBB scale) after T10 contusive spinal cord injury; format: in vivo, Sprague-Dawley rats
Excerpt: FIGS. 8A and 8B show the effect of tPA on recovery of locomotor function graded on the BBB scale (y-axis; Basso et al., 1995 J. Neurotrauma) that ranges from 21 in normal rats to 0 in rats with complete hind limb paralysis. FIG. 8A presents a time course in which data points represent the group average±SEM (n=3/group) scored at different time points post T10 contusive injury. […] The dip of the curves starting at week 7 in both of the experimental groups was caused by the intra-cerebral cortex injections of axonal tract tracer BDA which was done at week 6 after injury. FIG. 8B presents a bar graph showing results of a second experiment in which data points represent the group average±SEM (n=7/group).
In a first set of experiments, 6 female Sprague-Dawley rats were anesthetized and spinal cord injury (SCI) was induced at TIO by using the New York University impactor with a 10 gm weight and a 12.5 mm weight drop. Behavioral tests were conducted on the first post-operative day and then weekly. The BBB (Basso, Beattie, Bresnahan) behavioral test was used to examine hind limb reflexes as well as coordinated use of the hind limbs (Basso et al., 1995; Basso, et al., 1996). This “BBB” scale has been adopted by the Multicenter Animal Spinal Cord Injury Study and by other workers in the field. […]

[5] = tPA activity in the solution remaining in implanted minipumps; format: physicochemical; details: rat body temperature; delivered from a minipump reservoir
Experimental: Three days post-operatively, a second operation was conducted at T8-T9 for a bolus micro-injection of 10 μg of tPA (human two-chain tissue plasminogen activator; American Diagnostica, Inc.) reconstituted from lyophilized powder to 10 μg/10 μL) into three of the six rats. Following the bolus injection, an osmotic minipump (Alzet Model 2002: 14 day pump) (Durect Corp., Cupertino, Calif.) loaded with tPA (200 μL total volume, delivering 0.5 μL/hour, 10 μg tPA/day) was implanted at the side of injury and delivered tPA for 10 consecutive days. At the 6th post-operative week, BDA and Fluorogold injections were made in cortex to assess the extent of corticospinal tract regrowth and reconnection, and at the 10th post-operative week, animals were perfused and their spinal cords were removed for histological analysis. Implanted minipumps were saved for analysis of tPA activity in the remaining solution.

[6] = test system: dendritic spines in visual cortex slices contralateral to the deprived eye; assay: Spine motility in visual cortex slices after monocular deprivation, followed by plasmin application (occlusion test); format: cell-based, mice
Experimental: Mice (C57/B16) expressing GFP (strain GFP-M) or YFP (strain YFP-H) in a subset of their cortical neurons (principally layer V pyramidal neurons) (Feng, G., et al., 2000) were anesthetized at postnatal days 26 or 40 and maintained in deep anesthesia using isoflurane. Monocular deprivation was performed by scoring the eyelids and then sealing them shut with tissue adhesive (Vetbond, 3M, St. Paul, Minn.). Mice were checked over the next 2-3 days to ensure that the eye remained closed. A total of 18 mice were used in the in vivo experiments (6 control, 4 deprived at p28; 4 control, 4 deprived at p42) and 24 mice were used in the slice experiments (15 control, 9 deprived).
Z-stack images were exported to MATLAB (Mathworks, Natick, Mass.) and processed using custom algorithms. Spine motility was analyzed on two-dimensional projections in ImageJ (NIH, Bethesda, Md.), where motility was defined as the average change in spine length per unit time (Lendvai et al., 2000; Majewska and Sur, 2003). Spine turnover was rarely observed in single imaging sessions. All values are presented as mean±standard error of the mean and all statistical analyses were performed using either a parametric t-test statistic for populations of monocularly deprived and control spines, or a parametric paired t-test statistic for enzymatic treatments.
Slice preparation and enzyme application. […]

Molecule | effective dose for influencing axon growth (axon growth) | forelimb use while swimming (forelimb inhibition) [1] | increase in spine motility [2] [%] | appearance of the contusion site, hematoxylin and eosin staining ([3]; in comparison to control) | integrity of residual white matter at the injury epicenter, solvent blue stain ([3]; versus vehicle) | final score on the BBB test ([4]; after 10 weeks of recovery, first experiment, n=3/group, 10 μg bolus then 10 μg tPA/day for 10 days by minipump, baseline 21) | BBB scores relative to control animals ([4]; second experiment, n=7/group, tPA delivered for 7 days) | time for which tPA maintains enzymatic activity [5] | spine motility after additional plasmin application, superficial layers ([6]; regions where motility is already upregulated, n=88, p>0.5) | spine motility after plasmin treatment, middle regions ([6]; regions where motility is unchanged by deprivation, n=60, p<0.0001)
O=c1onc2cnc3ccccc3n12 [ODQ] | about 10 uM |  |  |  |  |  |  |  |  | 
tissue plasminogen activator [tPA] |  | much less than control animals | 17 | remarkably clean | significantly protected the integrity of the residual white matter | ~9 | improved BBB scores | up to 10 days |  | 
B1 |  |  | 21 |  |  |  |  |  | unaffected | significantly increased
